Experimental data from patent US12568972B2, “Pyridazinol compounds and derivatives, preparation methods, herbicidal compositions and applications thereof” (Qingdao Kingagroot Chemical Compound Co., Ltd., priority 2018, dated 2026).

Tests used:
Assay in all cases: Post-emergence test, weed control effect
Format in all cases: in vivo
Conditions in all cases: Dose 3000 g/ha, after 3 weeks
Rorippa indica = tested on: Rorippa indica
Outline: (§1)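 Weeds sown in soil-filled pots and sprayed at 2-3 leaf stage (2-3 weeks after sowing) with compound in acetone/Tween-80/water plus 80% vegetable oil methyl ester synergist at 1500 g/ha. After 3 weeks in the greenhouse, fresh-weight growth inhibition scored on a 0-10 scale (10 = completely dead).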

Amaranthus retroflexus = tested on: Amaranthus retroflexus
Outline: as §1

Chenopodiaceae = tested on: Chenopodiaceae
Outline: as §1

Veronica polita = tested on: Veronica polita
Outline: as §1

Cc1cc(-c2nnc(C(F)(F)F)cc2O)n(C(C)C)n1 [Compound 829]
10: weed control effect (activity level), Rorippa indica (Rorippa indica) | weed control effect (activity level), Amaranthus retroflexus (Amaranthus retroflexus) | weed control effect (activity level), Chenopodiaceae (Chenopodiaceae) | weed control effect (activity level), Veronica polita (Veronica polita)

CC(C)n1nc(F)cc1-c1nnc(C(F)(F)F)cc1O [Compound 830]
10: weed control effect (activity level), Rorippa indica (Rorippa indica) | weed control effect (activity level), Amaranthus retroflexus (Amaranthus retroflexus) | weed control effect (activity level), Chenopodiaceae (Chenopodiaceae) | weed control effect (activity level), Veronica polita (Veronica polita)

Oc1cc(C(F)(F)F)nnc1-c1ccnn1CC(F)(F)F [Compound 831]
10: weed control effect (activity level), Rorippa indica (Rorippa indica) | weed control effect (activity level), Amaranthus retroflexus (Amaranthus retroflexus) | weed control effect (activity level), Chenopodiaceae (Chenopodiaceae) | weed control effect (activity level), Veronica polita (Veronica polita)

Oc1cc(C(F)(F)F)nnc1-c1ccnn1-c1ccccc1 [Compound 832]
10: weed control effect (activity level), Rorippa indica (Rorippa indica) | weed control effect (activity level), Amaranthus retroflexus (Amaranthus retroflexus) | weed control effect (activity level), Chenopodiaceae (Chenopodiaceae) | weed control effect (activity level), Veronica polita (Veronica polita)

Oc1cc(C(F)(F)F)nnc1-c1ccnn1Cc1ccccc1 [Compound 833]
10: weed control effect (activity level), Rorippa indica (Rorippa indica) | weed control effect (activity level), Amaranthus retroflexus (Amaranthus retroflexus) | weed control effect (activity level), Chenopodiaceae (Chenopodiaceae) | weed control effect (activity level), Veronica polita (Veronica polita)

CC(=O)n1nccc1-c1nnc(C(F)(F)F)cc1O [Compound 834]
10: weed control effect (activity level), Rorippa indica (Rorippa indica) | weed control effect (activity level), Amaranthus retroflexus (Amaranthus retroflexus) | weed control effect (activity level), Chenopodiaceae (Chenopodiaceae) | weed control effect (activity level), Veronica polita (Veronica polita)

Cn1cc(-c2nnc(C(F)(F)F)cc2O)cn1 [Compound 839]
10: weed control effect (activity level), Rorippa indica (Rorippa indica) | weed control effect (activity level), Amaranthus retroflexus (Amaranthus retroflexus) | weed control effect (activity level), Chenopodiaceae (Chenopodiaceae) | weed control effect (activity level), Veronica polita (Veronica polita)

Cn1cncc1-c1nnc(C(F)(F)F)cc1O [Compound 857]
10: weed control effect (activity level), Rorippa indica (Rorippa indica) | weed control effect (activity level), Amaranthus retroflexus (Amaranthus retroflexus) | weed control effect (activity level), Chenopodiaceae (Chenopodiaceae) | weed control effect (activity level), Veronica polita (Veronica polita)

N#Cc1ccc(-c2nnc(C(F)(F)F)cc2O)s1 [Compound 873]
10: weed control effect (activity level), Rorippa indica (Rorippa indica) | weed control effect (activity level), Amaranthus retroflexus (Amaranthus retroflexus) | weed control effect (activity level), Chenopodiaceae (Chenopodiaceae) | weed control effect (activity level), Veronica polita (Veronica polita)

Oc1cc(C(F)(F)F)nnc1C1C=C2C=CC=CC2N1 (stereo not shown) [Compound 877]
10: weed control effect (activity level), Rorippa indica (Rorippa indica) | weed control effect (activity level), Amaranthus retroflexus (Amaranthus retroflexus) | weed control effect (activity level), Chenopodiaceae (Chenopodiaceae) | weed control effect (activity level), Veronica polita (Veronica polita)

Oc1cc(C(F)(F)F)nnc1-c1cncc(F)c1 [Compound 963]
10: weed control effect (activity level), Rorippa indica (Rorippa indica) | weed control effect (activity level), Amaranthus retroflexus (Amaranthus retroflexus) | weed control effect (activity level), Chenopodiaceae (Chenopodiaceae) | weed control effect (activity level), Veronica polita (Veronica polita)

Oc1cc(C(F)(F)F)nnc1-c1cnccc1F [Compound 964]
10: weed control effect (activity level), Rorippa indica (Rorippa indica) | weed control effect (activity level), Amaranthus retroflexus (Amaranthus retroflexus) | weed control effect (activity level), Chenopodiaceae (Chenopodiaceae) | weed control effect (activity level), Veronica polita (Veronica polita)

Oc1cc(C(F)(F)F)nnc1-c1cccnc1Br [Compound 965]
10: weed control effect (activity level), Rorippa indica (Rorippa indica) | weed control effect (activity level), Amaranthus retroflexus (Amaranthus retroflexus) | weed control effect (activity level), Chenopodiaceae (Chenopodiaceae) | weed control effect (activity level), Veronica polita (Veronica polita)
